Square brackets hold non-standard residues; d marks the D form. Ends that are not written are not given here. pS = N[C@@H](COP(=O)(O)O)C(=O)O

One test has as its system TCR27-AKD10R3 cells. Kind of test: X-scan (peptide scan), EGFP reporter effector cells. The following applies: Fig. 1c source data, HLA B*07, T2 cells pulsed with 25 μg peptide per 1 × 10^6 cells, 2 h, 37 °C, effector cells 2:1 overnight, mean value of triplicate. Format: cell-based, murine. Here is the method:
Tap-deficient T2 (174x CEM.T2) HLA-B*0702+ cells were received from Dr. Victor Engelhard. These and the commercially purchased Tap-deficient T2 (174 x CEM.T2) cells (ATCC CRL 1991) were maintained in RPMI 1640 (BioConcept) supplemented with 10% fetal calf serum (FCS, HyClone), 2mM L-glutamine and 1% Penicillin/Streptomycin at 37 °C and 5% CO2. The EGFP reporter cell line was based on a murine TCR negative thymoma cell line derived from strain BW5417 (ATCC®TIB-47TM) and was stably transduced with (a) TCR27 in which the human constant regions were replaced with those of mouse, (b) a chimeric mouse/human CD8, and (c) an EGFP reporter construct linked to a minimal IL-2 promoter comprising three NFAT-binding sites (3xNFAT)[44]. The transduced cells were termed TCR27-AKD10R3 cells and will be called the effector cells. Mouse cell lines were cultured in SF-IMDM (BioConcept) supplemented with 3% FCS, 1% Penicillin/Streptomycin, and 50 μM beta-mercaptoethanol at 37 °C and 10% CO2.
Peptides were dissolved in dimethyl sulfoxide (DMSO) at concentrations of 2–20 mg/mL, aliquoted and stored at −80 °C. Peptide-pulsing experiments were performed by pre-incubating T2 cells with 25 μg peptide per 1 × 10^6 cells in PBS for 2 h at 37 °C and 5% CO2, washed three times to remove unbound peptides and used for further downstream analysis. Peptide-pulsed T2 cells were incubated with effector cells in a 2:1 ratio overnight in SF-IMDM at 37 °C and 10% CO2, washed twice and stained with anti-mouse TCR-® chain clone H57-597 (BD Pharmingen #560656, 1:500) for 30 min at RT. Cells were washed twice before FACS-analysis using a BD FACS Canto II with System software v2.0. Data analysis was performed using FlowJo V10 Software. Binding affinity between each peptide and HLA-B*0702 was determined using an Alpha assay. It is a homogenous, proximity-based assay for detection of peptides binding to HLA class I molecules using a conformation-dependent anti-HLA class I antibody, W6/32, as one tag and a biotinylated recombinant HLA class I molecule as the other tag, and a proximity-based signal was generated through the luminescent oxygen channeling immunoassay technology (PerkinElmer) as described.
To identify the off-target peptides we have utilized an approach that was developed previously. In brief, we investigated which amino acids at each position in pMLL747–755 enable TCR interaction by sequentially replacing every amino acid position outside of the anchor positions 2 and 9 with all 19 alternative amino acids, resulting in 134 peptides (133 altered peptides plus original epitope). Each peptide was individually evaluated using cell-based in vitro cytotoxicity assay. To represent the TCR recognition kernel, we have defined Position Weight Matrices (PWMs) for each assay by assigning normalized measurements to each of the 20 amino acids in each position. To predict potential off-target peptides, we applied an algorithm projecting the PWM-defined kernel into the human proteome, scoring TCR27 recognition for the predicted HLA-B^*0702 binding 9-mer peptides. Of the 11 peptides with highest predicted cross-reactivity scores, we confirmed that only 2, […] and pDOT1L998–1006, strongly activated the TCR27-expressing effector T cells.
Regarding “EPRsPSHQM [single-residue substitution of pMLL747–755, Pos 8]”, the “Percentage GFP positive from TCR+ cells” value came to 2.83%. The same measure, in the same setting: to “EPRsPSHRM [single-residue substitution of pMLL747–755, Pos 8]” belongs 1.29%. For the substance “EPRsPSHTM [single-residue substitution of pMLL747–755, Pos 8]”, the “Percentage GFP positive from TCR+ cells” value worked out at 1.97%. As for “EPRsPSHVM [single-residue substitution of pMLL747–755, Pos 8]”, the “Percentage GFP positive from TCR+ cells” value is recorded as 3.82%. Regarding “EPRsPSHWM [single-residue substitution of pMLL747–755, Pos 8]”, the “Percentage GFP positive from TCR+ cells” value was 0.87%. For “EPRsPSHYM [single-residue substitution of pMLL747–755, Pos 8]”, the “Percentage GFP positive from TCR+ cells” value was 1.1%.

“EPRsPSISM [single-residue substitution of pMLL747–755, Pos 7]”: the “Percentage GFP positive from TCR+ cells” value is 1.77%. For the substance “EPRsPSKSM [single-residue substitution of pMLL747–755, Pos 7]”, the “Percentage GFP positive from TCR+ cells” value is 0.69%. The same measure, in the same setting: with “EPRsPSLSM [single-residue substitution of pMLL747–755, Pos 7]” the figure was 0.77%. Still for that read-out and setting: to “EPRsPSMSM [single-residue substitution of pMLL747–755, Pos 7]” belongs 1.05%. Consider “EPRsPSNSM [single-residue substitution of pMLL747–755, Pos 7]”, for which the “Percentage GFP positive from TCR+ cells” value was determined as 1.24%. Regarding “EPRsPSPSM [single-residue substitution of pMLL747–755, Pos 7]”, the “Percentage GFP positive from TCR+ cells” value is reported as 0.81%.

In the case of “EPRsPSQSM [single-residue substitution of pMLL747–755, Pos 7]”, the “Percentage GFP positive from TCR+ cells” value was 2.94%. “EPRsPSRSM [single-residue substitution of pMLL747–755, Pos 7]”: the “Percentage GFP positive from TCR+ cells” value stood at 1.16%. On to “EPRsPSSSM [single-residue substitution of pMLL747–755, Pos 7]”, for which the “Percentage GFP positive from TCR+ cells” value was found to be 1.6%. Consider “EPRsPSTSM [single-residue substitution of pMLL747–755, Pos 7]”, for which the “Percentage GFP positive from TCR+ cells” value turned out to be 3.23%.

For the substance “EPRsPSVSM [single-residue substitution of pMLL747–755, Pos 7]”, the “Percentage GFP positive from TCR+ cells” value is recorded as 2.51%. Same read-out and setting: with “EPRsPSWSM [single-residue substitution of pMLL747–755, Pos 7]” the figure was 1.19%; with “EPRsPSYSM [single-residue substitution of pMLL747–755, Pos 7]”, 2.33%. On the same count and under the same terms, with “EPRsPTHSM [single-residue substitution of pMLL747–755, Pos 6]” the figure was 1.88%; with “EPRsPVHSM [single-residue substitution of pMLL747–755, Pos 6]”, 0.85%. Same read-out and setting: to “EPRsPWHSM [single-residue substitution of pMLL747–755, Pos 6]” belongs 0.66%; to “EPRsPYHSM [single-residue substitution of pMLL747–755, Pos 6]”, 0.75%; to “EPRsQSHSM [single-residue substitution of pMLL747–755, Pos 5]”, 0.72%. For the substance “EPRsRSHSM [single-residue substitution of pMLL747–755, Pos 5]”, the “Percentage GFP positive from TCR+ cells” value turned out to be 0.73%.

As for “EPRsSSHSM [single-residue substitution of pMLL747–755, Pos 5]”, the “Percentage GFP positive from TCR+ cells” value was 0.79%.

For “EPRsTSHSM [single-residue substitution of pMLL747–755, Pos 5]”, the “Percentage GFP positive from TCR+ cells” value amounted to 0.78%.

“EPRsVSHSM [single-residue substitution of pMLL747–755, Pos 5]”: the “Percentage GFP positive from TCR+ cells” value is recorded as 0.96%. The same measure, in the same setting: with “EPRsWSHSM [single-residue substitution of pMLL747–755, Pos 5]” the figure was 1.08%; with “EPRsYSHSM [single-residue substitution of pMLL747–755, Pos 5]”, 1%; with “EPSsPSHSM [single-residue substitution of pMLL747–755, Pos 3]”, 2.7%. For “EPTsPSHSM [single-residue substitution of pMLL747–755, Pos 3]”, the “Percentage GFP positive from TCR+ cells” value worked out at 1.16%. With “EPVsPSHSM [single-residue substitution of pMLL747–755, Pos 3]”, the “Percentage GFP positive from TCR+ cells” value turned out to be 2.11%.

In the case of “EPWsPSHSM [single-residue substitution of pMLL747–755, Pos 3]”, the “Percentage GFP positive from TCR+ cells” value is 0.92%.

“EPYsPSHSM [single-residue substitution of pMLL747–755, Pos 3]”: the “Percentage GFP positive from TCR+ cells” value was determined as 1.08%. With “FPRsPSHSM [single-residue substitution of pMLL747–755, Pos 1]”, the “Percentage GFP positive from TCR+ cells” value came to 1.43%. On to “GPRsPSHSM [single-residue substitution of pMLL747–755, Pos 1]”, for which the “Percentage GFP positive from TCR+ cells” value was 1.59%. Regarding “HPRsPSHSM [single-residue substitution of pMLL747–755, Pos 1]”, the “Percentage GFP positive from TCR+ cells” value was found to be 1.23%. Consider “IPRsPSHSM [single-residue substitution of pMLL747–755, Pos 1]”, for which the “Percentage GFP positive from TCR+ cells” value is recorded as 1.7%. For “KPRsPSHSM [single-residue substitution of pMLL747–755, Pos 1]”, the “Percentage GFP positive from TCR+ cells” value was found to be 1.37%. The same measure, in the same setting: with “LPRsPSHSM [single-residue substitution of pMLL747–755, Pos 1]” the figure was 10.7%; with “MPRsPSHSM [single-residue substitution of pMLL747–755, Pos 1]”, 1.37%. Consider “NPRsPSHSM [single-residue substitution of pMLL747–755, Pos 1]”, for which the “Percentage GFP positive from TCR+ cells” value came to 1.27%. Take “PPRsPSHSM [single-residue substitution of pMLL747–755, Pos 1]”: the “Percentage GFP positive from TCR+ cells” value is reported as 1.13%. Turning to “QPRsPSHSM [single-residue substitution of pMLL747–755, Pos 1]”, the “Percentage GFP positive from TCR+ cells” value was found to be 2.64%. For “RPRsPSHSM [single-residue substitution of pMLL747–755, Pos 1]”, the “Percentage GFP positive from TCR+ cells” value is listed as 1.11%. On to “SPRsPSHSM [single-residue substitution of pMLL747–755, Pos 1]”, for which the “Percentage GFP positive from TCR+ cells” value is on record as 1.08%. On to “TPRsPSHSM [single-residue substitution of pMLL747–755, Pos 1]”, for which the “Percentage GFP positive from TCR+ cells” value is reported as 1.28%. For the substance “VPRsPSHSM [single-residue substitution of pMLL747–755, Pos 1]”, the “Percentage GFP positive from TCR+ cells” value turned out to be 1.39%. As to “WPRsPSHSM [single-residue substitution of pMLL747–755, Pos 1]”, the “Percentage GFP positive from TCR+ cells” value came out at 1.18%. For the substance “YPRsPSHSM [single-residue substitution of pMLL747–755, Pos 1]”, the “Percentage GFP positive from TCR+ cells” value stood at 1.32%.

The same test, now with this note: Fig. 1c source data, second set of control lines at the end of the sheet (no Pep code).
With “RVR[pS]PTRSL [unrelated phosphopeptide control of the X-scan, reference compound]”, the “Percentage GFP positive from TCR+ cells” value is 0.74%.

For the origin of these results see publication PMC10290117, “Molecular mechanism of phosphopeptide neoantigen immunogenicity” (Nature Communications, 2023).
